According to patent US20120283283A1, “METHODS FOR DETECTING ENHANCED RISK OF OPIOID-INDUCED HYPOXIA IN A PATIENT” (priority 2011, published 2012):

Test system: patients with moderate to severe postoperative pain following bunionectomy surgery
Assay: Three double blind, randomized clinical studies (007, 008, 021): oxygen desaturation (SpO2<90%) by pulse oximetry during 48 hour treatment
Settings: for median number of episodes of SpO2<90%: patients who experienced oxygen desaturation
Method: Oxygen saturation was measured continuously during baseline and the 48 hour treatment periods using pulse oximetry. The total number and percentage of patients with oxygen desaturation (SpO2<90%) were recorded at: 0, 15, 30 and 45 minutes, and 1, 2, 3, 4, 5, 6 and 8 hours after study drug administration; at the time of administration of subsequent doses of study medication; at the time of administration of supplemental analgesic medication; 1 hour after administration of study medication; and whenever a desaturation occurred during the dosing period.
Respiration rate (<10 breaths/min, 10-12 breaths/min, >12 breaths/min) was summarized at the same time points as the SpO2 recordings. Cumulative MED was determined at the time of the first episode of SpO2<90%. All desaturations and use of supplemental oxygenation, use of narcotic antagonists against respiratory impairment, and respiratory related serious adverse events (SAEs) were recorded.
In subjects with oxygen desaturation the following data was recorded: cumulative MED at first desaturation; mean desaturation values; number of desaturation episodes; and total duration of desaturation episodes.
Some patients in the three clinical studies were enrolled who resided near study sites that are located at an altitude of about or over 4000 feet above sea level.

CN1CC[C@]23c4c5ccc(O)c4O[C@H]2[C@@H](O)C=C[C@H]3[C@H]1C5.O=S(=O)(O)O [morphine, morphine sulfate]
median number of episodes of SpO2<90%: 2.0

COc1ccc2c3c1O[C@H]1C(=O)CC[C@@]4(O)[C@@H](C2)N(C)CC[C@]314.Cl [oxycodone, oxycodone hydrochloride]
incidence of desaturation (SpO2<90%) (12 mg MED, lower elevation / non-high altitude sites): 1.6% | cumulative dose before experiencing an oxygen desaturation event (SpO2<90%) (cumulative MED at first desaturation): 24 mg | incidence of desaturation at high elevation site compared to lower sites (morphine or oxycodone alone): ten-fold greater | median number of episodes of SpO2<90%: 2.0
